{"source": "patent US12233047B2", "about": "“Pharmaceutical combination and use thereof” (ASCENTAGE PHARMA (SUZHOU) CO., LTD., priority 2019, dated 2025)", "key": {"[1]": {"target": "T1, FLT3 (wild type) (Homo sapiens, UniProt P36888)", "T1 construct": "host or cells: T7 phage in E. coli (BL21-derived) or HEK-293", "T1 sequence (P36888 27-993)": "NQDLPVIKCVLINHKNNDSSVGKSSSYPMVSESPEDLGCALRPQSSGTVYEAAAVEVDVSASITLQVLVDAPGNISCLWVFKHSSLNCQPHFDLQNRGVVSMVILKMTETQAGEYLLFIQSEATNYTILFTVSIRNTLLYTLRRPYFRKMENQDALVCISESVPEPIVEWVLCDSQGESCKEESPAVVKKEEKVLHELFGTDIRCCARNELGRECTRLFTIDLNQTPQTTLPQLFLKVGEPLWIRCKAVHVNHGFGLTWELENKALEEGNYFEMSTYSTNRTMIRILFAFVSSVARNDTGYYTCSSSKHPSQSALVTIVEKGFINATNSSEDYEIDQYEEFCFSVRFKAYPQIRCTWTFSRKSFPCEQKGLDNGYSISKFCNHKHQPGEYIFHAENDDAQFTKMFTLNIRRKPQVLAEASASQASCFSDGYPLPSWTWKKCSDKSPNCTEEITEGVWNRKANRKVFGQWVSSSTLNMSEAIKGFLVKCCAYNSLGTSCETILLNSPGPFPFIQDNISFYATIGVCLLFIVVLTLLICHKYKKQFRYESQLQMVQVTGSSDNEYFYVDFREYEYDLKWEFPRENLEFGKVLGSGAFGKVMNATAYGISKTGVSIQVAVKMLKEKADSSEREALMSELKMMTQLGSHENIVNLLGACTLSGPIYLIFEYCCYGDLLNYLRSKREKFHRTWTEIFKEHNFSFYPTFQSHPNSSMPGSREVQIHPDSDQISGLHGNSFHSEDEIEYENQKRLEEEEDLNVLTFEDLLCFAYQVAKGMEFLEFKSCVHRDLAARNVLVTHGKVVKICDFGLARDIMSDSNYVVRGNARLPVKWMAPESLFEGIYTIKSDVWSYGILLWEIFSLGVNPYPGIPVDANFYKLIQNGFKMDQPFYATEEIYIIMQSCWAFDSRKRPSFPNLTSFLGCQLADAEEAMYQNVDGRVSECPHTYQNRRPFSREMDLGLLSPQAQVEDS", "assay": "KINOMEscan kinase binding assay, FLT3 (wild type)", "settings": "lower % Ctrl = stronger binding", "protocol": "(§1) The kinase assay was conducted using KINOMEscan™.\n(§2) Kinase-tagged T7 phage strains were grown in parallel in 24-well blocks in an E. coli host derived from the BL21 strain. E. coli were grown to log-phase and infected with T7 phage from a frozen stock (multiplicity of infection=0.4) and incubated with shaking at 32° C. until lysis (90-150 minutes). The lysates were centrifuged (6,000×g) and filtered (0.2 μm) to remove cell debris. The remaining kinases were produced in HEK-293 cells and subsequently tagged with DNA for qPCR detection. Streptavidin-coated magnetic beads were treated with biotinylated small molecule ligands for 30 minutes at room temperature to generate affinity resins for kinase assays. The liganded beads were blocked with excess biotin and washed with blocking buffer (SeaBlock (Pierce), 1% BSA, 0.05% Tween 20, 1 mM DTT) to remove unbound ligand and to reduce non-specific phage binding. Binding reactions were assembled by combining kinases, liganded affinity beads, and test compound (Compound 23) in 1× binding buffer (20% SeaBlock, 0.17×PBS, 0.05% Tween 20, 6 mM DTT). Test compound were prepared as 40× stocks in 100% DMSO and directly diluted into the assay. All reactions were performed in polypropylene 384-well plates in a final volume of 0.04 ml. […] The kinase concentration in the eluates was measured by qPCR. […]"}, "[2]": {"target": "T2, FLT3 (R834Q) (Homo sapiens, UniProt P36888, R834Q)", "T2 construct": "host or cells: T7 phage in E. coli (BL21-derived) or HEK-293", "T2 sequence (P36888 27-993 R834Q)": "T1 sequence (P36888 27-993) with R808Q", "assay": "KINOMEscan kinase binding assay, FLT3 (R834Q)", "protocol": "as §1, §2"}}, "note": "Numbering of substitutions follows the chain as printed.", "data": [{"smiles": "Cc1ccc(C(=O)Nc2ccc(CN3CCN(C)CC3)c(C(F)(F)F)c2)cc1C#Cc1cnc2[nH]ncc2c1", "note": "[Compound 23, 3-(2-(1H-pyrazolo[3,4-b]pyridin-5-yl)ethynyl)-4-methyl-N-(4-((4-methylpiperazin-1-yl)methyl)-3-(trifluoromethyl)phenyl)benzamide]", "values": [{"measurement": "% Ctrl@10 nM", "setting": "[1]; 10 nM", "result": 2.4, "unit": "% Ctrl"}, {"measurement": "% Ctrl@100 nM", "setting": "[1]; 100 nM", "result": 0.75, "unit": "% Ctrl"}, {"measurement": "% Ctrl@10 nM", "setting": "[2]; 10 nM", "result": 23, "unit": "% Ctrl"}, {"measurement": "% Ctrl@100 nM", "setting": "[2]; 100 nM", "result": 15, "unit": "% Ctrl"}]}]}
